Here are results for two compounds from patent US6284746A (Chinoin, Ltd., priority 1993, dated 2001).

Data set [1] is described as follows: physchem. The settings on record: 40% aqueous dimethyl-beta-cyclodextrin.
Method: 11.6 mg of Taxol (Sigma Chemicals Co. USA) is treated in 10 ml of 40% aqueous heptakis-2,6-di-O-methylated β-cyclodextrin at room temperature for 30 minutes, until a solution of slight haze is obtained.
The nature of data set [2]: physchem.
From the text: The suspension was filtered and the dissolved taxol determined by HPLC.
Data set [3] can be described thus: Solubilizing of taxol with HPBCD (Example 5). Format: physicochemical.
From the text: Taxol was solubilized and formulated with 2-hydroxypropylated β-cyclodextrin. (HPBCD).
A short description of data set [4]: physchem. Conditions: water.
Data set [5] is described as follows: Solubility of taxol with soluble anionic-β-cyclodextrin polymer CDPSI (Example 4). Format: physicochemical.
Data set [6] can be described thus: physchem. Conditions: pH 7.6.
Method: Randomly methylated β-cyclodextrin (average degree of substitution=1.8) was dissolved in physiological buffered saline (pH 7.6) at different concentrations and these solutions were incubated with the taxol substrate for 12 hours at room temperature. Each sample contained taxol in 5 mg/ml initial concentration. The suspensions after equilibration were membrane filtered and assayed for dissolved taxol by HPLC.
The conditions of data set [7]: background statement; cited from earlier work.
For data set [8] the following is noted: cited from earlier work.
The conditions of data set [9]: 25° C., 12 hours.

≈ marks a conversion by molar mass, not a printed value.

What is called solubility is how much of the substance goes into solution per volume. Low values mean a poorly soluble substance, high ones a readily soluble substance. What is called thermodynamic solubility is solubility found after equilibrating the solid with the medium. In turn, `CC(=O)O[C@H]1C(=O)[C@@]2(C)[C@H]([C@H](OC(=O)c3ccccc3)[C@]3(O)C[C@H](OC(=O)[C@H](O)[C@@H](NC(=O)c4ccccc4)c4ccccc4)C(C)=C1C3(C)C)[C@]1(OC(C)=O)CO[C@@H]1C[C@@H]2O` (relative stereo) [taxol, [2aR-[2aα, 4β; 4αβ,6β,9α(αR*,βS*),11α-12α,12aα, 12bα]]-β-(Benzoylamino)-α-hydroxybenzene-propanoic acid 6,12-b-bis (acetyloxy)-12-(benzoyloxy)-2a,3,4,4a, 5,6,9,10,11,12,12a,12b-dodecahydro-4,11-dihyroxy-4a,8,13,13-tetramethyl-5-oxo-7,11-methano-1H-cyclodeca[3,4]-benz-[1,2-b]oxet-9-yl ester] showed a solubility at 0.5 h in data set [1] of 992 to 1000 µg/mL (≈ 1160 to 1170 µM). The thermodynamic solubility at 12 h in [2] (10% aqueous succinyl-methyl-β-cyclodextrin) stood at 244 µg/mL (≈ 286 µM); in [2] (40% succinyl-methyl-β-cyclodextrin solution), 993 µg/mL (≈ 1160 µM); in [6] (1% rameb in buffered saline), 4.4 µg/mL (≈ 5.15 µM); in data set [6] (5% rameb in buffered saline), 42.5 µg/mL (≈ 49.8 µM); in data set [6] (10% rameb in buffered saline), 232 µg/mL (≈ 271 µM); in [6] (40% rameb in buffered saline), 860 µg/mL (≈ 1010 µM). The thermodynamic solubility at 12 h in data set [6] (buffered saline) is 0.6 µg/mL (≈ 0.703 µM). For the same compound, the solubility in [3] (0.5% hpbcd solution, HPBCD 0.5%) was 1 µg/mL (≈ 1.17 µM); in [3] (1% hpbcd solution, HPBCD 1%) it was 1.7 µg/mL (≈ 1.99 µM); in [3] (5% hpbcd solution, HPBCD 5%), 6.8 µg/mL (≈ 7.96 µM); in data set [3] (10% hpbcd solution, HPBCD 10%), 34.9 µg/mL (≈ 40.9 µM); in data set [3] (40% hpbcd solution, HPBCD 40%), 100 µg/mL (≈ 118 µM); in [3] (HPBCD none), 0.6 µg/mL (≈ 0.703 µM). For the same compound, the solubility in [4] is 0.55 to 0.59 µg/mL (≈ 0.644 to 0.691 µM); in data set [5] (0% cdpsi, CDPSI 0%), 0.6 µg/mL (≈ 0.703 µM); in data set [5] (1% cdpsi solution, CDPSI 1%), 1.8 µg/mL (≈ 2.11 µM); in data set [5] (5% cdpsi solution, CDPSI 5%), 3.5 µg/mL (≈ 4.1 µM); in [5] (10% cdpsi solution, CDPSI 10%) it was 10.6 µg/mL (≈ 12.4 µM); in [5] (40% cdpsi solution, CDPSI 40%) it was 56.8 µg/mL (≈ 66.5 µM). Moreover, in data set [7], the antitumor activity result is “significant antitumor activity”. Besides, the “products of decomposition, biological activity” value in data set [7] was “biologically inactive products are forming”. In addition, in data set [8] (Bartoli et al., background), the stability of taxol result is listed as “generally poor stability”. In data set [8] (background statement), the “sensitivity to light and pH” value was “very sensitive to light and the pH”. The solubility of taxol in [8] (glycosyl- and maltosyl-β-cyclodextrins with ethanol and ethylacetate (Mikuni 1993)) is 20 to 110 µg/mL.

For the compound `CC(=O)O[C@@]12CO[C@@H]1C[C@H](O)[C@@]1(C)C(=O)[C@H](O)C3=C(C)[C@@H](OC(=O)[C@H](O)[C@@H](NC(=O)OC(C)(C)C)c4ccccc4)C[C@@](O)([C@@H](OC(=O)c4ccccc4)[C@H]21)C3(C)C` [Taxotere, butoxycarbonyl-10-deacetyl-N-debenzoyl taxol], the “solubility enhancement relative to free taxol derivative in water” value in [9] is 850 times.
